Conditions: 323.15 K, Liquid, Vibrating tube method

CCCCCCC(=O)OCC(COC(=O)CCCCCC)(COC(=O)CCCCCC)COC(=O)CCCCCC [pentaerythritol tetraheptanoate]
Conditions | mass density [kg/m3]
10134 kPa | 962.4
10149 kPa | 962.4
10164 kPa | 962.4
10178 kPa | 962.4
10196 kPa | 962.4
10211 kPa | 962.5
10229 kPa | 962.4
10244 kPa | 962.5
10259 kPa | 962.5
10274 kPa | 962.5
10292 kPa | 962.5
10307 kPa | 962.6
10322 kPa | 962.6
10338 kPa | 962.5
10356 kPa | 962.7
10371 kPa | 962.6
10386 kPa | 962.7
10405 kPa | 962.7
10420 kPa | 962.7
10436 kPa | 962.7
10468 kPa | 962.6
10487 kPa | 962.6
10503 kPa | 962.8
10519 kPa | 962.7
10538 kPa | 962.7
10553 kPa | 962.7
10572 kPa | 962.8
10588 kPa | 962.7
10604 kPa | 962.8
10620 kPa | 962.8
10639 kPa | 962.8
10656 kPa | 962.8
10672 kPa | 962.7
10692 kPa | 962.8
10708 kPa | 962.8
10725 kPa | 962.8
10741 kPa | 962.8
10761 kPa | 962.8
10777 kPa | 962.8
10794 kPa | 962.9
10814 kPa | 962.9
10831 kPa | 963
10851 kPa | 963
10868 kPa | 963
10885 kPa | 962.9
10902 kPa | 963
10923 kPa | 963
10939 kPa | 963
11105 kPa | 963.1
11376 kPa | 963.3
11395 kPa | 963.2
11414 kPa | 963.3
11433 kPa | 963.2
11455 kPa | 963.3
11474 kPa | 963.3
11493 kPa | 963.4
11516 kPa | 963.3
11535 kPa | 963.3
11558 kPa | 963.4
11577 kPa | 963.4
11597 kPa | 963.4
11616 kPa | 963.5
11640 kPa | 963.4
11659 kPa | 963.3
11979 kPa | 963.7
12025 kPa | 963.7
12045 kPa | 963.6
12070 kPa | 963.6
12091 kPa | 963.7
12113 kPa | 963.7
12138 kPa | 963.7
12159 kPa | 963.7
12181 kPa | 963.8
12205 kPa | 963.8
12226 kPa | 963.7
12252 kPa | 963.7
12274 kPa | 963.9
12296 kPa | 963.8
12322 kPa | 963.9
12344 kPa | 963.9
12367 kPa | 964
12389 kPa | 963.9
12416 kPa | 963.9
12438 kPa | 964
12488 kPa | 963.9
12510 kPa | 963.9
12533 kPa | 964.1
12583 kPa | 964.1
12606 kPa | 964.1
12634 kPa | 964.1
12680 kPa | 964.2
12756 kPa | 964.1
12832 kPa | 964.3
12856 kPa | 964.2
12884 kPa | 964.2
12908 kPa | 964.2
12937 kPa | 964.3
13227 kPa | 964.5
14188 kPa | 965.1
14278 kPa | 965.1
14314 kPa | 965
14343 kPa | 965.1
14609 kPa | 965.3
14641 kPa | 965.4
14675 kPa | 965.3
14706 kPa | 965.3
14744 kPa | 965.4
14917 kPa | 965.5
14957 kPa | 965.6
14988 kPa | 965.6
15013 kPa | 965.6
15044 kPa | 965.4
15070 kPa | 965.6
15097 kPa | 965.6
15124 kPa | 965.6
15154 kPa | 965.6
15175 kPa | 965.8
15192 kPa | 965.7
15213 kPa | 965.7
15230 kPa | 965.7
15251 kPa | 965.6
15268 kPa | 965.8
15287 kPa | 965.7
15328 kPa | 965.7
15347 kPa | 965.7
15381 kPa | 965.7
15629 kPa | 966.1
15638 kPa | 966.1
15649 kPa | 966
15707 kPa | 966
15727 kPa | 966
15736 kPa | 966
15745 kPa | 966
15765 kPa | 966.1
15774 kPa | 966.1
15785 kPa | 966.1
15794 kPa | 966
15804 kPa | 965.9
15814 kPa | 966
15824 kPa | 966.2
15833 kPa | 966.2
15844 kPa | 966.1
15863 kPa | 966.1
15903 kPa | 966.2
15953 kPa | 966.3
15962 kPa | 966.3
15972 kPa | 966.2
15981 kPa | 966.2
15992 kPa | 966.3
16003 kPa | 966.2
16012 kPa | 966.2
16021 kPa | 966.3
16033 kPa | 966.3
16042 kPa | 966.2
16052 kPa | 966.3
16063 kPa | 966.3
16072 kPa | 966.3
16083 kPa | 966.2
16092 kPa | 966.3
16102 kPa | 966.3
16112 kPa | 966.2
16123 kPa | 966.2
16133 kPa | 966.3
16142 kPa | 966.4
16154 kPa | 966.3
16163 kPa | 966.3
16175 kPa | 966.3
16184 kPa | 966.3
16194 kPa | 966.4
16203 kPa | 966.4
16215 kPa | 966.3
16224 kPa | 966.3
16234 kPa | 966.5
16246 kPa | 966.4
16256 kPa | 966.3
16267 kPa | 966.4
16277 kPa | 966.3
16286 kPa | 966.4
16296 kPa | 966.5
16308 kPa | 966.3
16317 kPa | 966.4
16329 kPa | 966.4
16339 kPa | 966.3
16349 kPa | 966.4
16360 kPa | 966.4
16370 kPa | 966.6
16380 kPa | 966.4
16390 kPa | 966.3
16402 kPa | 966.4
16412 kPa | 966.4
16422 kPa | 966.5
16434 kPa | 966.6
16443 kPa | 966.5
16455 kPa | 966.5
16465 kPa | 966.5
16475 kPa | 966.5
16487 kPa | 966.6
16496 kPa | 966.5
16507 kPa | 966.6
16519 kPa | 966.6
16529 kPa | 966.6
16539 kPa | 966.6
16551 kPa | 966.5
16562 kPa | 966.6
16572 kPa | 966.5
16582 kPa | 966.6
16594 kPa | 966.5
16604 kPa | 966.7
16614 kPa | 966.6
16626 kPa | 966.8
16636 kPa | 966.6
16649 kPa | 966.4
16657 kPa | 966.6
16670 kPa | 966.7
16680 kPa | 966.6
16692 kPa | 966.6
16702 kPa | 966.7
16712 kPa | 966.6
16725 kPa | 966.6
16735 kPa | 966.7
16823 kPa | 966.7
16834 kPa | 966.7
16844 kPa | 966.8
16857 kPa | 966.6

From the NIST ThermoML archive (doi:10.1021/je060271a)
